Experimental findings from PubChem BioAssay AID2043 (NMMLSC, 2009) are described below.

Active and inactive are the calls of the source. The rule behind the calls is not given here.

The assay has as its target GTPase HRas, activated mutant (human). The assay can be described thus: inhibitors of GTP binding, activated Ras, SAR follow-up, biochemical, additional analogs, activated mutant, multiplex flow cytometry, Ki (AID 2043). Particulars: bead-based flow cytometry multiplex, fluorescent GTP binding; for Ki: measured here: Ki derived from EC50. For orientation: A flow cytometer gives signals particle by particle.

As to `O=C(C#Cc1ccccc1)c1ccc(F)cc1`, the EC50 entry was “inactive” and the Ki was 1340 nM.
In the same order, the values of `CC(C(=O)O)c1cccc(C(=O)c2ccccc2)c1` (stereo unspecified) are “inactive” and 30 nM.
In the same order, the values of `O=C(C#Cc1ccccc1)c1ccccc1[N+](=O)[O-]` are “inactive” and 560 nM.

Broadly, the Ki is a measure of affinity in units of concentration, obtained from inhibition or displacement. A low value points to tighter binding.
